biological target: C-Raf FL (full length CRAF with Y340E and Y341E activating mutations, co-expressed with h14-3-3 zeta) (Homo sapiens (Human), UniProt P04049, Y340E/Y341E); assay: In vitro Raf activity determination, AlphaScreen p-MEK readout, c-Raf (C-Raf FL); type: biochemical; conditions: c-Raf approximately 4 nM, ATP 1 μM, pre-incubation 60 minutes, reaction 1 hour
In short: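 Phosphorylation of kinase-dead biotinylated MEK1 (~10 nM) by C-Raf FL (~4 nM) read by AlphaScreen luminescence with anti-phospho-MEK1/2 after EDTA stop. ATP was 1 μM, with a 1 h reaction at room temperature. Compounds were pre-incubated with enzyme and substrate for 60 min in Tris/MgCl2 buffer, pH 7.5.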

Sequence of C-Raf FL (full length CRAF with Y340E and Y341E activating mutations, co-expressed with h14-3-3 zeta) (P04049 whole entry Y340E/Y341E): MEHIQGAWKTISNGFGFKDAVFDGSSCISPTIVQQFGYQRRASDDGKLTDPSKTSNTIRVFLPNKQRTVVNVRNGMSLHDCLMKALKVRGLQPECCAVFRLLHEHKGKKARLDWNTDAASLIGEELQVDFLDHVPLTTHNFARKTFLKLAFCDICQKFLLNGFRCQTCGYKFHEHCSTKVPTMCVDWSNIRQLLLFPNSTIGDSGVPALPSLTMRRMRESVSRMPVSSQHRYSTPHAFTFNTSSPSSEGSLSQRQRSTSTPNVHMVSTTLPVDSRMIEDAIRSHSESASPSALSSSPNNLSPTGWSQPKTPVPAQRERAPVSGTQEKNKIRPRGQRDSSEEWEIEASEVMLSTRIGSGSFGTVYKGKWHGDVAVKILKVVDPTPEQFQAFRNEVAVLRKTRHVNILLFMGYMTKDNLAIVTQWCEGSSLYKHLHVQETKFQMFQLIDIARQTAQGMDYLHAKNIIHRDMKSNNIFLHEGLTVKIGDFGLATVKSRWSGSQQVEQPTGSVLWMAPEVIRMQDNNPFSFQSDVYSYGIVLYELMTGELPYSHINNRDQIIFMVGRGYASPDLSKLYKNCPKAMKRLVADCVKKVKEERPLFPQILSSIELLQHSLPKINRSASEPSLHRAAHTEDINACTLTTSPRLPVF
Sequence of C-Raf FL (full length CRAF with Y340E and Y341E activating mutations, co-expressed with h14-3-3 zeta) (P63104 whole entry partner): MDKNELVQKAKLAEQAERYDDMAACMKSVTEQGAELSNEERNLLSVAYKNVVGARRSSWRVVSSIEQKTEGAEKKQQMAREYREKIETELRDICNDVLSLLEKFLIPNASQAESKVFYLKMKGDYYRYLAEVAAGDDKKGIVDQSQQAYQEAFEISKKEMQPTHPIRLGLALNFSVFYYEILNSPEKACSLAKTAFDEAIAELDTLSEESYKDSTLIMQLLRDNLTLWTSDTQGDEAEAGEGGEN

Structure (SMILES) | IC50
Cc1ccc(NC(=O)c2ccnc(C(F)(F)F)c2F)cc1-c1cnc2c(c1)N1CCOCC1C(C)(C)C2O (stereo not drawn) [Example 336, 3-fluoro-N-(3-(6-hydroxy-5,5-dimethyl-1,2,4,4a,5,6-hexahydro-[1,4]oxazino[4,3-a][1,5]naphthyridin-9-yl)-4-methylphenyl)-2-(trifluoromethyl) isonicotinamide] | 0.2 nM
CC[C@H]1Oc2nnc(-c3cc(NC(=O)c4ccnc(C(C)(F)F)c4)ccc3C)cc2N2CCOC[C@H]12 [Example 533, 2-(1,1-difluoroethyl)-N-(3-((6R,6aR)-6-ethyl-6a,7,9,10-tetrahydro-6H-[1,4]oxazino[4,3-d]pyridazino[3,4-b][1,4]oxazin-2-yl)-4-methylphenyl)isonicotinamide] | 0.1 nM
Cc1ncc(NC(=O)c2cccc(C(F)(F)F)c2)cc1-c1cc(F)c2c(c1)N1CCOC[C@@H]1[C@@](F)(CO)C2 [Example 426, N-(5-((4aR,5R)-5,7-difluoro-5-(hydroxymethyl)-1,2,4,4a,5,6-hexahydro-[1,4]oxazino[4,3-a]quinolin-9-yl)-6-methylpyridin-3-yl)-3-(trifluoromethyl)benzamide] | 0.4 nM
CCN1C(=O)N2COCCC2(C)c2cc(-c3cc(NC(=O)c4cccc(C(F)(F)F)c4)cnc3C)ccc21 (stereo not drawn) [Example 243] | 0.6 nM
Cc1ccc(NC(=O)c2ccnc(C(C)(C)C#N)c2)cc1-c1cnc2c(c1)N1CCOC[C@@H]1C[C@@H]2O [Example 151, 2-(2-cyanopropan-2-yl)-N-(3-((4aS,6S)-6-hydroxy-1,2,4,4a,5,6-hexahydro-[1,4]oxazino[4,3-a][1,5]naphthyridin-9-yl)-4-methylphenyl)isonicotinamide] | 0.014 nM
CCN1C(=O)[C@H]2COCC[C@@H]2c2cc(-c3cc(NC(=O)c4ccnc(C(C)(C)F)c4)cnc3C)cnc21 [Example 310, N-(5-((4aR, 10bS)-6-ethyl-5-oxo-1,4,4a,5,6,10b-hexahydro-2H-pyrano[3,4-c][1,8]naphthyridin-9-yl)-6-methylpyridin-3-yl)-2-(2-fluoropropan-2-yl)isonicotinamide] | 0.1 nM
Cc1ncc(NC(=O)c2cccc(C(F)(F)F)c2)cc1-c1cnc2c(c1)N1CCOC[C@H]1C[C@@H]2O (racemic) [Example 38, (rac)-(cis)-N-(5-(6-hydroxy-1,2,4,4a,5,6-hexahydro-[1,4]oxazino[4,3-a][1,5]naphthyridin-9-yl)-6-methylpyridin-3-yl)-3-(trifluoro-methyl)benzamide] | 0.03 nM
CCN1C(=O)[C@@H]2COCC[C@H]2c2cc(-c3cc(NC(=O)c4cncc(C(F)(F)F)c4)ccc3C)cnc21 [Example 303, N-(3-((4aS,10bR)-6-ethyl-5-oxo-2,4,4a,5,6,10b-hexahydro-1H-pyrano[3,4-c][1,8]naphthyridin-9-yl)-4-methylphenyl)-5-(trifluoromethyl) nicotinamide] | 0.1 nM
Cc1ccc(NC(=O)c2ccnc(C(C)(F)F)c2)cc1-c1ccc2c(c1)N1CCOCC1C1(COC1)C2 (racemic) [Example 55, (rac)-2-(1,1-difluoroethyl)-N-(4-methyl-3-(2,4,4a,6-tetrahydro-1H-spiro[[1,4]oxazino[4,3-a]quinoline-5,3′-oxetan]-9-yl)phenyl)isonicotinamide] | 0.022 nM
Cc1ncc(NC(=O)c2ccnc(C(C)(C)F)c2)cc1-c1ccc2c(c1)N1CCOCC[C@H]1C[C@H]2O [Example 444] | 0.4 nM
Cc1ccc(NC(=O)c2cnnc(C(F)(F)F)c2)cc1-c1ccc2c(c1)N1CCOC[C@H]1[C@](F)(CO)C2 [Example 384, N-(3-((4aS,5S)-5-fluoro-5-(hydroxymethyl)-1,2,4,4a,5,6-hexahydro-[1,4]oxazino[4,3-a]quinolin-9-yl)-4-methylphenyl)-6-(trifluoromethyl)pyridazine-4-carboxamide] | 0.2 nM
Cc1ccc(NC(=O)c2ccnc(C(F)(F)F)c2)cc1-c1cnc2c(c1)N1CCOC[C@@H]1[C@@H](C(C)(C)O)C2 [Example 454] | 0.8 nM
CCN1C(=O)[C@@H]2COCC[C@@]2(C)c2cc(-c3cc(NC(=O)c4ccnc(C(F)(F)F)c4)ccc3C)cnc21 (relative stereo) [Example 342, N-(3-((4a,10b-trans)-6-ethyl-10b-methyl-5-oxo-2,4,4a,5,6,10b-hexahydro-1H-pyrano[3,4-c][1,8]naphthyridin-9-yl)-4-methylphenyl)-2-(trifluoromethyl)isonicotinamide] | 0.1 nM
CCC(=O)NC1CC2COCCN2c2cc(-c3cc(NC(=O)c4ccnc(C(F)(F)F)c4)ccc3C)cnc21 (racemic) [Example 172, rac-N-(4-methyl-3-(6-propionamido-1,2,4,4a,5,6-hexahydro-[1,4]oxazino[4,3-a][1,5]naphthyridin-9-yl)phenyl)-2-(trifluoromethyl)isonicotinamide] | 0.034 nM
Cc1ncc(NC(=O)c2cccc(C(F)(F)F)c2)cc1-c1cnc2c(c1)[C@@H]1CCOC[C@H]1C(=O)N2C(C)C [Example 262, N-(5-((4aS, 10bR)-6-isopropyl-5-oxo-2,4,4a,5,6,10b-hexahydro-1H-pyrano[3,4-c][1,8]naphthyridin-9-yl)-6-methylpyridin-3-yl)-3-(trifluoromethyl) benzamide] | 0.7 nM
Cc1ccc(NC(=O)c2ccnc(C(C)(F)F)c2)cc1-c1ccc2c(c1)N1CCOC[C@@H]1C(CO)(CO)C2 [Example 53, (S)—N-(3-(5,5-bis(hydroxymethyl)-1,2,4,4a,5,6-hexahydro-[1,4]oxazino[4,3-a]quinolin-9-yl)-4-methylphenyl)-2-(1,1-difluoroethyl)isonicotinamide] | 0.0062 nM
Cc1ccc(NC(=O)c2ccnc(C(C)(F)F)c2)cc1-c1cnc2c(c1)N1CCOCC1CC2O (racemic) [Example 107, rac-cis-2-(1,1-Difluoroethyl)-N-(3-(6-hydroxy-1,2,4,4a,5,6-hexahydro-[1,4]oxazino[4,3-a][1,5]naphthyridin-n-9-yl)-4-methylphenyl)isonicotinamide] | 0.019 nM
Cc1ccc(NC(=O)c2ccnc(C(C)(F)F)c2)cc1-c1ccc2c(c1)N1CCOC[C@@H]1C[C@]2(C)O [Example 25, 2-(1,1-difluoroethyl)-N-(3-((4aS,6S)-6-hydroxy-6-methyl-1,2,4,4a,5,6-hexahydro-[1,4]oxazino[4,3-a]quinolin-9-yl)-4-methylphenyl)isonicotinamide] | 0.52 nM
CCN1C(=O)OC2COCCC2c2cc(-c3cc(NC(=O)c4ccnc(C(F)(F)F)c4)ccc3C)cnc21 [Example 297, N-(3-((4aS,11bR- cis)7-ethyl-6-oxo-2,4,4a,6,7,11b-hexahydro-1H-pyrano[4,3-f]pyrido[2,3-d][1,3]oxazepin-10-yl)-4-methylphenyl)-2-(trifluoromethyl) isonicotinamide] | 0.2 nM
Cc1ncc(NC(=O)c2ccnc(C(F)(F)F)c2)cc1-c1ccc2c(c1)N1CCOCC[C@H]1C[C@H]2O [Example 442, N-(5-((5aS,7R)-7-hydroxy-1,2,5,5a,6,7-hexahydro-4H-[1,4]oxazepino [4,5-a]quinolin-10-yl)-6-methylpyridin-3-yl)-2-(trifluoromethyl) isonicotinamide] | 0.7 nM
Cc1ccc(NC(=O)c2ccnc(C(C)(F)F)c2)cc1-c1cnc2c(c1)[C@@H]1CCOC[C@H]1C(=O)N2C(C)C [Example 263, 2-(1,1-difluoroethyl)-N-(3-((4aS, 10bR)-6-isopropyl-5-oxo-2,4,4a,5,6,10b-hexahydro-1H-pyrano[3,4-c][1,8]naphthyridin-9-yl)-4-methylphenyl) isonicotinamide] | 0.3 nM
